{
  "source": "patent US20080261891A1",
  "about": "“COMPOSITIONS AND METHODS FOR USING SYRINGOPEPTIN 25A AND RHAMNOLIPIDS” (Utah State University, priority 2007, published 2008)",
  "format_in_all_cases": "cell-based",
  "key": {"Streptococcus mutans [1]": {"system": "Streptococcus mutans", "experiment": "Inhibition rate (IR), propidium iodide uptake", "experimental": "(§1) The antimicrobial action for each compound was initially determined by the rate of uptake of propidium iodide (Fluoropure grade, Molecular Probes, Inc., Eugene, Oreg.) as previously described (Haughland, R. P., 2002, Handbook of fluorescent probes and research chemicals, 9th ed. Molecular Probes, Inc., Eugene, Oreg.). Briefly, all cultures were grown overnight in their respective optimal growth medium and temperature from freezer vials (Table 1). Each culture was sub-cultured twice, harvested in mid-log phase, washed with saline, and adjusted to an appropriate concentration by measuring the optical density at 600 nm. PI, with an excitation wavelength of 535 and an emission wavelength of 617, was added to the culture suspension at a final concentration of 10 μM. Each organism was treated with 50 μg/mL SP 25A and 60 μg/mL of the RL mixture in a final volume of 2.2 mL. The increase in fluorescence was measured with a Shimadzu RF 1501 spectrophotofluorometer at 15 s intervals for a maximum period of 120 min. Saline was added in place of SP 25A or RLs as a negative control. All inhibition experiments were done in replicate.\n(§2) The rate of antimicrobial action was expressed as the inhibition rate (“IR”). Curve fitting was done using OriginPro version 7.0 (Natick, Mass.). IR=((Log RFU/(Time))−C)/Time (when d Log RFU/dT>0). Where RFU=relative fluorescent units; and C=Y intercept."}, "[2]": {"system": "Lactobacillus acidophilus", "experiment": "Inhibition rate (IR), propidium iodide uptake", "experimental": "as §1, §2"}, "Citrobacter fruendii [3]": {"system": "Citrobacter fruendii", "experiment": "Inhibition rate (IR), propidium iodide uptake", "experimental": "as §1, §2"}, "[4]": {"system": "Eschereschia coli H7:0157", "experiment": "Inhibition rate (IR), propidium iodide uptake", "experimental": "as §1, §2"}, "Flavobacterium devorans [5]": {"system": "Flavobacterium devorans", "experiment": "Inhibition rate (IR), propidium iodide uptake", "experimental": "as §1, §2"}, "Salmonella enteridis [6]": {"system": "Salmonella enteridis", "experiment": "Inhibition rate (IR), propidium iodide uptake", "experimental": "as §1, §2"}, "Bacillus megaterium [7]": {"system": "Bacillus megaterium", "experiment": "Inhibition rate (IR), propidium iodide uptake", "experimental": "as §1, §2"}, "[8]": {"system": "Streptococcus agalacticae", "experiment": "Inhibition rate (IR), propidium iodide uptake", "experimental": "as §1, §2"}, "[9]": {"system": "Staphylococcus aureus subsp. aureus", "experiment": "Inhibition rate (IR), propidium iodide uptake", "experimental": "as §1, §2"}, "Eschereschia coli K12 [10]": {"system": "Eschereschia coli K12", "experiment": "Inhibition rate (IR), propidium iodide uptake", "experimental": "as §1, §2"}, "Enterococcus faecalis": {"system": "Enterococcus faecalis", "experiment": "Inhibition rate (IR), propidium iodide uptake", "experimental": "as §1, §2"}, "Erwinia herbicola [11]": {"system": "Erwinia herbicola", "experiment": "Inhibition rate (IR), propidium iodide uptake", "experimental": "as §1, §2"}, "[12]": {"system": "Klebsiella pneumoniae subsp. Pneumoniae", "experiment": "Inhibition rate (IR), propidium iodide uptake", "experimental": "as §1, §2"}, "Lactobacillus plantarum [13]": {"system": "Lactobacillus plantarum", "experiment": "Inhibition rate (IR), propidium iodide uptake", "experimental": "as §1, §2"}, "Streptococcus mutans [14]": {"system": "Streptococcus mutans", "experiment": "MIC, microbroth dilution method", "details": "48 h", "experimental": "(§3) The MIC of the compounds for the organisms was determined by the microbroth dilution method, described hereafter. The microorganisms were prepared as described above and resuspended in their optimal growth media (Table 1) to ˜10^5 CFU/mL containing SP 25A at 2, 3, 4, 5, 6, 7, 8, 16, 32 and 50 μg/mL in a total volume of 550 μL. RL concentrations of 2, 3, 4, 5, 6, 7, 8, 16, 32 and 60 μg/mL in a total volume of 550 μL were tested in a 48-well plate (Corning, N.Y.). The plates were incubated at optimal growth conditions for the respective organism and monitored for an increase in OD600 after 48 h by a Perkin-Elmer (HTS 7000) plate reader (Downers Grove, Ill.). […] Negative controls (no inhibition of growth) were included using saline in the assay for each compound. The lowest concentration at which there was no increase in OD over 48 h was reported as the MIC. Each MIC was determined in replicate with three separate tests per replication. The results of the three tests were averaged for each replicate."}, "[15]": {"system": "Lactobacillus acidophilus", "experiment": "MIC, microbroth dilution method", "details": "48 h", "experimental": "as §3"}, "Listeria innocua": {"system": "Listeria innocua", "experiment": "MIC, microbroth dilution method", "details": "48 h", "experimental": "as §3"}, "Micrococcus luteus": {"system": "Micrococcus luteus", "experiment": "MIC, microbroth dilution method", "details": "48 h", "experimental": "as §3"}, "Citrobacter fruendii [16]": {"system": "Citrobacter fruendii", "experiment": "MIC, microbroth dilution method", "details": "48 h", "experimental": "as §3"}, "Streptococcus suis": {"system": "Streptococcus suis", "experiment": "MIC, microbroth dilution method", "details": "48 h", "experimental": "as §3"}, "Flavobacterium devorans [17]": {"system": "Flavobacterium devorans", "experiment": "MIC, microbroth dilution method", "details": "48 h", "experimental": "as §3"}, "Enterobacter aerogenes": {"system": "Enterobacter aerogenes", "experiment": "MIC, microbroth dilution method", "details": "48 h", "experimental": "as §3"}, "Salmonella enteridis [18]": {"system": "Salmonella enteridis", "experiment": "MIC, microbroth dilution method", "details": "48 h", "experimental": "as §3"}, "Bacillus megaterium [19]": {"system": "Bacillus megaterium", "experiment": "MIC, microbroth dilution method", "details": "48 h", "experimental": "as §3"}, "Salmonella typhimurium": {"system": "Salmonella typhimurium", "experiment": "MIC, microbroth dilution method", "details": "48 h", "experimental": "as §3"}, "Clostridium sporogenes": {"system": "Clostridium sporogenes", "experiment": "MIC, microbroth dilution method", "details": "48 h", "experimental": "as §3"}, "[20]": {"system": "Streptococcus agalacticae", "experiment": "MIC, microbroth dilution method", "details": "48 h", "experimental": "as §3"}, "Aeromonas caviae": {"system": "Aeromonas caviae", "experiment": "MIC, microbroth dilution method", "details": "48 h", "experimental": "as §3"}, "Eschereschia coli K12 [21]": {"system": "Eschereschia coli K12", "experiment": "MIC, microbroth dilution method", "details": "48 h", "experimental": "as §3"}, "Listeria monocytogenes": {"system": "Listeria monocytogenes", "experiment": "MIC, microbroth dilution method", "details": "48 h", "experimental": "as §3"}, "Bacillus cereus": {"system": "Bacillus cereus", "experiment": "MIC, microbroth dilution method", "details": "48 h", "experimental": "as §3"}, "[22]": {"system": "Lactococcus lactis subsp. Lactis", "experiment": "MIC, microbroth dilution method", "details": "48 h", "experimental": "as §3"}, "Erwinia herbicola [23]": {"system": "Erwinia herbicola", "experiment": "MIC, microbroth dilution method", "details": "48 h", "experimental": "as §3"}, "Bacillus subtilis": {"system": "Bacillus subtilis", "experiment": "MIC, microbroth dilution method", "details": "48 h", "experimental": "as §3"}, "[24]": {"system": "Klebsiella pneumoniae subsp. Pneumoniae", "experiment": "MIC, microbroth dilution method", "details": "48 h", "experimental": "as §3"}, "Lactobacillus plantarum [25]": {"system": "Lactobacillus plantarum", "experiment": "MIC, microbroth dilution method", "details": "48 h", "experimental": "as §3"}},
  "note": "Where a SMILES comes first, the peptide text is derived from it. Bridges are numbered along the chain shown (N, C = ends). [ ]: non-standard residue; d: D form. The star is where a group is joined. ξ: configuration not given here. Decanoyl(3ξ-OH) = CCCCCCCC(O)CC(=O)*; Dab = NCC[CH](N)C(=O)O; Dhb = C/C=C(\\N)C(=O)O",
  "data": [
    {"compound": "C/C=C(\\NC(=O)C(C)NC(=O)C(C)NC(=O)C(CC(C)C)NC(=O)C(NC(=O)C(C)NC(=O)C(C)NC(=O)C(NC(=O)C1CCCN1C(=O)/C(=C/C)NC(=O)CC(O)CCCCCCC)C(C)C)C(C)C)C(=O)NC(C(=O)N/C(=C\\C)C(=O)NC(C)C(=O)NC(C(=O)NC(C)C(=O)NC(C)C(=O)N/C(=C\\C)C(=O)NC1C(=O)NC(CO)C(=O)NC(C)C(=O)NC(C(C)C)C(=O)NC(C)C(=O)NC(CCN)C(=O)NC(CCN)C(=O)NC(Cc2ccc(O)cc2)C(=O)OC1C)C(C)C)C(C)C", "note": "(stereo not drawn) [SP 25A, syringopeptin 25A] ({Decanoyl(3ξ-OH)}-[Dhb]PVAAVLAA[Dhb]V[Dhb]AVAA[Dhb]TSAVA[Dab][Dab]Y; ester 18-C; configuration not given here)", "values": [
      {"measurement": "IR SP 25A (50 μg/mL)", "setting": "Streptococcus mutans [1]", "result": 0.003},
      {"measurement": "IR SP 25A (50 μg/mL)", "setting": "[2]", "result": 0.003},
      {"measurement": "IR SP 25A (50 μg/mL)", "setting": "Citrobacter fruendii [3]", "result": 0.000},
      {"measurement": "IR SP 25A (50 μg/mL)", "setting": "[4]", "result": 0.000},
      {"measurement": "IR SP 25A (50 μg/mL)", "setting": "Flavobacterium devorans [5]", "result": 0.002},
      {"measurement": "IR SP 25A (50 μg/mL)", "setting": "Salmonella enteridis [6]", "result": 0.000},
      {"measurement": "IR SP 25A (50 μg/mL)", "setting": "Bacillus megaterium [7]", "result": 0.005},
      {"measurement": "IR SP 25A (50 μg/mL)", "setting": "[8]", "result": 0.004},
      {"measurement": "IR SP 25A (50 μg/mL)", "setting": "[9]", "result": 0.003},
      {"measurement": "IR SP 25A (50 μg/mL)", "setting": "Eschereschia coli K12 [10]", "result": 0.000},
      {"measurement": "IR SP 25A (50 μg/mL)", "setting": "Enterococcus faecalis", "result": 0.001},
      {"measurement": "IR SP 25A (50 μg/mL)", "setting": "Erwinia herbicola [11]", "result": 0.000},
      {"measurement": "IR SP 25A (50 μg/mL)", "setting": "[12]", "result": 0.000},
      {"measurement": "IR SP 25A (50 μg/mL)", "setting": "Lactobacillus plantarum [13]", "result": 0.003},
      {"measurement": "MIC", "setting": "Streptococcus mutans [14]", "result": 4, "unit": "µg/mL"},
      {"measurement": "MIC", "setting": "[15]", "result": 8, "unit": "µg/mL"},
      {"measurement": "MIC", "setting": "Listeria innocua", "result": 3, "unit": "µg/mL"},
      {"measurement": "MIC", "setting": "Micrococcus luteus", "result": 4, "unit": "µg/mL"},
      {"measurement": "MIC", "setting": "Citrobacter fruendii [16]", "result": ">50", "unit": "µg/mL"},
      {"measurement": "MIC", "setting": "Streptococcus suis", "result": 4, "unit": "µg/mL"},
      {"measurement": "MIC", "setting": "Flavobacterium devorans [17]", "result": 4, "unit": "µg/mL"},
      {"measurement": "MIC", "setting": "Enterobacter aerogenes", "result": ">50", "unit": "µg/mL"},
      {"measurement": "MIC", "setting": "Salmonella enteridis [18]", "result": ">50", "unit": "µg/mL"},
      {"measurement": "MIC", "setting": "Bacillus megaterium [19]", "result": 3, "unit": "µg/mL"},
      {"measurement": "MIC", "setting": "Salmonella typhimurium", "result": ">50", "unit": "µg/mL"},
      {"measurement": "MIC", "setting": "Clostridium sporogenes", "result": 4, "unit": "µg/mL"},
      {"measurement": "MIC", "setting": "[20]", "result": 8, "unit": "µg/mL"},
      {"measurement": "MIC", "setting": "Aeromonas caviae", "result": ">50", "unit": "µg/mL"},
      {"measurement": "MIC", "setting": "Eschereschia coli K12 [21]", "result": ">50", "unit": "µg/mL"},
      {"measurement": "MIC", "setting": "Listeria monocytogenes", "result": 3, "unit": "µg/mL"},
      {"measurement": "MIC", "setting": "Bacillus cereus", "result": 4, "unit": "µg/mL"},
      {"measurement": "MIC", "setting": "[22]", "result": 4, "unit": "µg/mL"},
      {"measurement": "MIC", "setting": "Erwinia herbicola [23]", "result": ">50", "unit": "µg/mL"},
      {"measurement": "MIC", "setting": "Bacillus subtilis", "result": 4, "unit": "µg/mL"},
      {"measurement": "MIC", "setting": "[24]", "result": ">50", "unit": "µg/mL"},
      {"measurement": "MIC", "setting": "Lactobacillus plantarum [25]", "result": 16, "unit": "µg/mL"}
    ]}
  ]
}
